Laboratory results: patent publication US20070299092A1 (Wyeth, priority 2004, published 2007)
Values joined by “and” are separate entries in the source; they are usually repeats but may differ in a detail not shown here. Equal values may be shown once. Read-outs that look alike come from different tables or passages of the source. Values belong to the compound of their own block, whether it stands above or below them.

How the values were obtained:
[1] = biological target: T1, human KDR (VEGF-receptor-2) (Homo sapiens, UniProt P35968); assay: KDR kinase enzyme assay wash-out experiments (irreversible inhibition); format: biochemical
T1 construct: beginning at Met-806; (5′-ATG GAT CCA GAT GM CTC CCA TTG) and ending at Val-1356; made in house
Experimental: To determine if compounds bound irreversibly to enzyme, plates were washed after the enzyme plus compound pre-incubation step and prior to the addition of ATP. Parallel plates were tested wherein one plate was processed exactly as above while a second plate was washed three times in 100 μl of 4 mM HEPES, pH 7.4, to remove unbound compound. 1× Kinase buffer (30 μl of 1 mM MnCl2, 4 mM HEPES, pH 7.4, 20 μM Na3VO4) and 20 μl of ATP/MgCl2 were added to the wash-out plate. Detection of phosphotyrosinylated peptide for both plates was performed as described above.
For each inhibitor shown in Table 2, two IC50 determinations are shown, one under normal conditions and the other where an intermediate wash-out step is carried out. […] If there was a large increase in the IC50 value in the wash-out experiment compared to the experiment where there was no wash-out, then it was determined that the compound was behaving as a conventional reversible binding inhibitor.

[2] = biological target: T1, human KDR (VEGF-receptor-2); assay: KDR kinase enzyme assay (DELFIA, KDR-IC-Flag, poly(Glu4-Tyr) peptide); format: biochemical; details: for inhibition at 0.1 µM: Concentration 100 nM; for inhibition at 0.1 µM / inhibition at 1 µM: read-out: % Inhibition; for inhibition at 1 µM: Concentration 1000 nM
[3] = test system: Human colon carcinoma DLD-1; assay: Growth of human tumor xenografts in the nude mouse model; details: for % T/C Day 7 / % T/C Day 14 / % T/C Day 21 / Relative tumor growth Day 7 / Relative tumor growth Day 14 / Relative tumor growth Day 21: DLD1, nude mouse
Experimental: Human colon carcinoma DLD-1 cells (American Type Culture Collection, Rockville, Md.) were grown in tissue culture in DMEM (Gibco/BRL, Gaithersburg, Md.) supplemented with 10% FBS (Gemini Bio-Products Inc., Calabasas, Calif.). Athymic nu/nu female mice (Charles River, Wilmington, Mass.) were injected subcutaneously (SC) in the flank area with 6×10^6 DLD-1 cells. When tumors attained a mass of between 75 and 100 mg, the mice were randomly assigned into treatment groups with 5 animals per group. Animals were treated orally (PO) once daily on days 1 through 20 post staging (day zero) with a dose range (50 to 100 mg/kg/dose) of compound prepared in 0.5% Methocel/0.5% Tween 80 or 0.5% Methocel/0.4% Tween 80 as the vehicle control. Tumor mass was determined every 7 days [(length×width^2)/2] for 21 days post-staging. Relative tumor growth (mean tumor mass on days 7, 14 and 21 divided by the mean tumor mass on day zero) was determined for each treatment group.

[4] = test system: Human umbilical vein endothelial cells (HUVEC); assay: HUVEC proliferation assay, VEGF-dependent growth ([3H]-thymidine incorporation); format: cell-based; details: conc. 10000 nM
How it was run: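 HUVEC seeded 4000 cells/well, attached overnight, then given compound in serum/VEGF-free EBM plus 50 ng/ml VEGF (final); parallel plates used EGM2 with 2% serum lacking VEGF. Incubation 4-5 days at 37° C. DNA synthesis measured by 5 h [3H]-thymidine (1 μCi/well) incorporation, scintillation-counted.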

KDR = KDR (Homo sapiens, UniProt P35968); assay: cell-based; details: IC50 (nM), inhibition of KDR kinase autophosphorylation in KDR15 cells, KDR15 cells, VEGF 50 ng/ml, phospho-KDR-Y996 immunoblot
[5] = 50 mg/kg/dose PO, days 1 through 20
[6] = 100 mg/kg/dose PO, days 1 through 20
[7] = Table 6, dose not given, administered on days 1 through 20

T1 sequence (P35968 806-1356): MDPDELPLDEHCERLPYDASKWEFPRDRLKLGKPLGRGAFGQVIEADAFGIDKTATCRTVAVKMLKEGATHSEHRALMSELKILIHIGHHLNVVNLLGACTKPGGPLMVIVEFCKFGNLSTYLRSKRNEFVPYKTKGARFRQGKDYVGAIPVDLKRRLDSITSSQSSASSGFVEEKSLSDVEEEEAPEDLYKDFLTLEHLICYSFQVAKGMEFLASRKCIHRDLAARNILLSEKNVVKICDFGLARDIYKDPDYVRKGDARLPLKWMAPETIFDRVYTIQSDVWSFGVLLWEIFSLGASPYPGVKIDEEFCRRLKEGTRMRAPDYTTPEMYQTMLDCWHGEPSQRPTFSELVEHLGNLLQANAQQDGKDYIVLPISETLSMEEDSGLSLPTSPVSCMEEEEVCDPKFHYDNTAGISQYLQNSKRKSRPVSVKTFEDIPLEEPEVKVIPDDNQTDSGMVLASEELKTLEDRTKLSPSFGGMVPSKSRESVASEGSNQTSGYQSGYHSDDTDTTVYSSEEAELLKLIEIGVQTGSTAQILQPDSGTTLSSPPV
Sequence of KDR (P35968 20-1356): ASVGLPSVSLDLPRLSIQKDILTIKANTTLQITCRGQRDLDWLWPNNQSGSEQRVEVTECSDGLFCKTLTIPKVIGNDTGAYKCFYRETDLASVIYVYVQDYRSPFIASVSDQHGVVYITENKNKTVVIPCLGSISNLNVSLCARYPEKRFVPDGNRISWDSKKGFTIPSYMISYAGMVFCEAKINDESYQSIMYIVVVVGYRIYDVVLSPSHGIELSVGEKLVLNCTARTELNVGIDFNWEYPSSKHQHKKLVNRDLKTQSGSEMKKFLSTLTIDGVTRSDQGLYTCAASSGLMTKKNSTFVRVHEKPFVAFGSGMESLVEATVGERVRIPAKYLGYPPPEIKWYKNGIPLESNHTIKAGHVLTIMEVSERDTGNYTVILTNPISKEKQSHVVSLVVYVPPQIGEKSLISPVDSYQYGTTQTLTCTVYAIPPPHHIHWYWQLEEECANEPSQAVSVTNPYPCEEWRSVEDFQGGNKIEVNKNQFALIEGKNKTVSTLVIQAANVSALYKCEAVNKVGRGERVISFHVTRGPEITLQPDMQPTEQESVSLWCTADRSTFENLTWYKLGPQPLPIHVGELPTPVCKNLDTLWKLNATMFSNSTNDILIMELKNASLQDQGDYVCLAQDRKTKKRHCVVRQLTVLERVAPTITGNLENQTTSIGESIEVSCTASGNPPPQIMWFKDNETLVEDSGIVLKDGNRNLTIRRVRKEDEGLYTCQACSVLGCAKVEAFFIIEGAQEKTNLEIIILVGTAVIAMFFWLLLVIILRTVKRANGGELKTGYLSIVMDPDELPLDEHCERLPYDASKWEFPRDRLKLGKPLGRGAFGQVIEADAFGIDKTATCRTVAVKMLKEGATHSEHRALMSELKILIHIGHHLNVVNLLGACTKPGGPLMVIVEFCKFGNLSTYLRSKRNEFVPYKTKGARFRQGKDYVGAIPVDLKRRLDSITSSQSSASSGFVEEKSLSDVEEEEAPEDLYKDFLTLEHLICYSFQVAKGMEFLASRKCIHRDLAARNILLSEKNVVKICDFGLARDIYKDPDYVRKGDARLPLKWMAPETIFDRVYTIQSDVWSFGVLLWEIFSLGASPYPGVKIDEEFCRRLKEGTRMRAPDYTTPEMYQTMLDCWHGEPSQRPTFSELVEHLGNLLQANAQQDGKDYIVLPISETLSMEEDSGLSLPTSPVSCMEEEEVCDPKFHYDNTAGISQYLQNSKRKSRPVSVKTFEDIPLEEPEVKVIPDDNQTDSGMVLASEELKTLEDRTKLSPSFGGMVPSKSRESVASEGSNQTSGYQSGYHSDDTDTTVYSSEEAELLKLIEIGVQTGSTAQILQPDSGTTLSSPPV

melting point: 177 to 180 °C
Structure (SMILES): COCCOc1cc2ncnc(NC3=CC(=O)C(Oc4ccccc4)=CC3=O)c2cc1OC

melting point: 211 to 212 °C
Structure (SMILES): COCCOC1=CC(=O)C(Nc2ncnc3cc(OCCOC)c(OC)cc23)=CC1=O

IC50 ([1]; no wash): 17.9 nM | IC50 ([1]; wash out): 33.1 nM | IC50 ([2]; ATP conc. 10 μM): 17.9 nM | inhibition at 0.1 µM ([2]; ATP conc. 10 μM): 92% | inhibition at 1 µM ([2]; ATP conc. 10 μM): 90% | inhibition at 1 µM ([2]; ATP conc. 1000 μM): 97%
Structure (SMILES): COCCOc1cc2ncnc(NC3=CC(=O)C(Sc4nccs4)=C(OC)C3=O)c2cc1OC [Example 20]

Structure (SMILES): COCCOc1cc2ncnc(NC3=CC(=O)C(Oc4ccc(-n5ccnc5)cc4)=CC3=O)c2cc1OC [Example 26, 2-[4-(1H-imidazol-1-yl)phenoxy]-5-{[6-methoxy-7-(2-methoxyethoxy)quinazolin-4-yl]amino}benzo-1,4-quinone]
S/T = # of Survivors/# of Treated on Day +21 post tumor staging [3, 5]: 5/5 | % T/C Day 7 [3, 5]: 84% | % T/C Day 14 [3, 5]: 62% | % T/C Day 21 [3, 5]: 61% | Relative tumor growth Day 7 [3, 5]: 4.21 | Relative tumor growth Day 14 [3, 5]: 6.93 | Relative tumor growth Day 21 [3, 5]: 10.50 | S/T = # of Survivors/# of Treated on Day +21 post tumor staging [3, 6]: 5/5 | % T/C Day 7 [3, 6]: 67% | % T/C Day 14 [3, 6]: 55% | % T/C Day 21 [3, 6]: 51% | Relative tumor growth Day 7 [3, 6]: 3.36 | Relative tumor growth Day 14 [3, 6]: 6.10 | Relative tumor growth Day 21 [3, 6]: 8.80 | inhibition at 10 µM ([4]; Homo sapiens, HUVEC): 89% | % Inhibition of VEGF-dependent growth of HUVEC [4]: 96% and 99% and 95% and 87% and 91%

IC50 ([1]; no wash): 53.7 nM | IC50 ([1]; wash out): 73.7 nM | IC50 ([2]; ATP conc. 10 μM): 53.7 nM and 72.4 nM | inhibition at 0.1 µM ([2]; ATP conc. 10 μM): 73% | inhibition at 1 µM ([2]; ATP conc. 10 μM): 93% | inhibition at 1 µM ([2]; ATP conc. 1000 μM): 94%
Structure (SMILES): COCCOc1cc2ncc(C#N)c(NC3=CC(=O)C(Oc4ccc(-n5ccnc5)cc4)=CC3=O)c2cc1OC [Example 72, 4-({4-[4-(1H-imidazol-1-yl)phenoxy]-3,6-dioxocyclohexa-1,4-dien-1-yl}amino)-6-methoxy-7-(2-methoxyethoxy)quinoline-3-carbonitrile]

melting point: 252 to 253 °C
Structure (SMILES): COc1cc2ncnc(NC3=CC(=O)C4(c5ccccc5)OC4C3=O)c2cc1OC (centres unmarked) [Example 100, 4-[(6,7-dimethoxyquinazolin-4-yl)amino]-1-phenyl-7-oxabicyclo[4.1.0]hept-3-ene-2,5-dione]

melting point: 188 to 190 °C
Structure (SMILES): COc1cc2ncnc(NC3=CC(=O)C4(C(C)C)OC4C3=O)c2cc1OC (centres unmarked) [Example 107, 4-[(6,7-dimethoxy-4-quinazolinyl)amino]-1-isopropyl-7-oxabicyclo[4.1.0]hept-3-ene-2,5-dione]

Structure (SMILES): COCCOc1cc2ncnc(NC3=CC(=O)C(N4CCCC4C(F)(F)F)=CC3=O)c2cc1OC (centres unmarked) [Example 150, 2-{[6-methoxy-7-(2-methoxyethoxy)quinazolin-4-yl]amino}-5-[2-(trifluoromethyl)pyrrolidin-1-yl]benzo-1,4-quinone]
% T/C Day 7 [3, 7]: 63% | % T/C Day 14 [3, 7]: 82% | % T/C Day 21 [3, 7]: 88% | Relative tumor growth Day 7 [3, 7]: 1.62 | Relative tumor growth Day 14 [3, 7]: 6.45 | Relative tumor growth Day 21 [3, 7]: 12.54

Structure (SMILES): COCCOc1cc2ncnc(NC3=C(SC)C(=O)C(Cl)=C(OC)C3=O)c2cc1OC [Example 190, 2-chloro-3-methoxy-5-{[6-methoxy-7-(2-methoxyethoxy)quinazolin-4-yl]amino}-6-(methylthio)benzo-1,4-quinone]
% T/C Day 7 [3, 7]: 61% | % T/C Day 14 [3, 7]: 94% | % T/C Day 21 [3, 7]: 76% | Relative tumor growth Day 7 [3, 7]: 1.58 | Relative tumor growth Day 14 [3, 7]: 7.41 | Relative tumor growth Day 21 [3, 7]: 10.74

IC50 ([1]; no wash): 4.7 nM | IC50 ([1]; wash out): 16.9 nM | IC50 (KDR): 236 to 400 nM
Structure (SMILES): COCCOc1cc2ncnc(NC3=CC(=O)C(OCC4CC4)=CC3=O)c2cc1OC [Example 213, 2-(cyclopropylmethoxy)-5-{[6-methoxy-7-(2-methoxyethoxy)quinazolin-4-yl]amino}benzo-1,4-quinone]

IC50 ([1]; no wash): 78.6 nM | IC50 ([1]; wash out): 128 nM | IC50 (KDR): 175 to 210 nM
Structure (SMILES): COCCOc1cc2ncnc(NC3=CC(=O)C(OCCN(C)c4ccccc4)=CC3=O)c2cc1OC [Example 222, 2-{[6-methoxy-7-(2-methoxyethoxy)quinazolin-4-yl]amino}-5-{2-[methyl(phenyl)amino]ethoxy}benzo-1,4-quinone]
